Molecules are shown by their SMILES.

For data set [1], the system named is Hepatocyte. Put plainly: Hepatoprotective activity against H2O2-induced cell damage in rat hepatocyte assessed as reduction in cell growth. It counts as functional, cell-based.
Data set [2] is described as follows: Hepatoprotective activity against D-Galactosamine-induced toxicity in rat WB-F344 cells assessed as cell survival rate at 10 uM relative to control. It counts as functional.
A short description of data set [3]: Hepatoprotective activity against D-GaIN - induced toxicity in rat WB-F344 cells assessed as inhibition of cell growth relative to control. It counts as functional. Also on record: scale not given: the % may be the effect or the level left.
For data set [4], the system named is HepG2. Briefly: Hepatoprotective activity against H2O2-induced human HepG2 cells assessed as increase in ALT level. The format is functional.
Data set [5] deals with HepG2. Put plainly: Hepatoprotective activity against H2O2-induced human HepG2 cells assessed as increase in AST level. The format is functional.
The test system of data set [6] is Mus musculus. Briefly: Hepatoprotective activity against D-GaIN/LPS induced liver injury mouse model assessed as reduction in sALT at 100 mg/kg, ip relative to control. It counts as functional. Also on record: scale not given: the % may be the effect or the level left.
Data set [7] concerns Mus musculus. Put plainly: Hepatoprotective activity against D-GaIN/LPS induced liver injury mouse model assessed as reduction in sAST at 100 mg/kg, ip relative to control. Also on record: scale not given: the % may be the effect or the level left. It counts as functional.
The species entered for data set [8] is Mus musculus. Put plainly: Hepatoprotective activity against D-GaIN/LPS induced liver injury mouse model assessed as increase in sALT relative to control. It counts as functional.
The species named for data set [9] is Mus musculus. Put plainly: Hepatoprotective activity against D-GaIN/LPS induced liver injury mouse model assessed as increase in sAST relative to control. It counts as functional.
The nature of data set [10]: Hepatotoxicity in rat assessed as reduction in GPT level at 0.01 mg/mL measured after 48 hrs (reference value: 291 IU/L). The format is toxicity. Particulars: in vivo.
Data set [11] deals with Mus musculus. Put plainly: Hepatoprotective activity against D-GaIN/CCl4 induced liver injury mouse model assessed as reduction in GPT level at 1.0 microg/ml, iv relative to control. The following applies: dose 1 µg/ml. On the set-up: scale not given: the % may be the effect or the level left. The format is functional.
Data set [12] is described as follows: Hepatotoxicity in rat assessed as reduction in GPT level at 1.0 mg/mL measured after 48 hrs (reference value: 291 IU/L). Particulars: in vivo. The format is toxicity.
The subject of data set [13] is Hepatocyte. Briefly: Hepatoprotective activity against D-GaIN/TNFalpha-induced cell death in mouse hepatocyte at 200 uM relative to control. It counts as functional.
The subject of data set [14] is Hepatocyte. Briefly: Hepatoprotective activity against D-GaIN/TNFalpha-induced cell death in mouse hepatocyte at 100 uM relative to control. Particulars: dose 100 µM. The format is functional, cell-based.
Data set [15] deals with Hepatocyte. Put plainly: Hepatoprotective activity against D-GaIN/TNFalpha-induced cell death in mouse hepatocyte at 50 uM relative to control. It counts as functional.
For data set [16], the system named is Hepatocyte. Briefly: Hepatoprotective activity against D-GaIN/TNFalpha-induced cell death in mouse hepatocyte at 25 uM relative to control. The format is functional.
Data set [17] is described as follows: Cytotoxicity against human HepG2 cells assessed as reduction in cell viability by SRB assay. The format is toxicity, cell-based. In general terms: In SRB staining, fixed cells bind dye roughly in proportion to their protein.

Usually EC50 stands for the midpoint of the concentration-response curve. Consider `CC(=O)N[C@@H](CS)C(=O)O` [ACETYLCYSTEINE], for which the 50% effective concentration (EC50) with Hepatocyte [1] is 106 µM.
`CC1(C)CC[C@]2(C(=O)O[C@@H]3O[C@H](CO)[C@@H](O)[C@H](O)[C@H]3O[C@@H]3OC[C@@H](O)[C@H](O)[C@H]3O)CC[C@]3(C)C(=CC[C@@H]4[C@@]5(C)C[C@@H](O)[C@@H](O)[C@@](C)(CO)[C@@H]5CC[C@]43C)[C@@H]2[C@@H]1O`: the Activity in data set [2] and in [3] was 64% in each case.
For `COC(=O)C(C)[C@@H](O)C(=O)C[C@@H](C)[C@H]1C[C@H](O)[C@@]2(C)[C@@H]3C(=O)C[C@H]4C(C)(C)[C@@H](O)CC[C@]4(C)[C@H]3C(=O)C[C@]12C` (stereo partly drawn), the Activity in the data set on HepG2 [4] is reported as 18.51 U/L; in the data set with HepG2 [5] it was 19.5 U/L.
As to `CC(C)=CCC[C@](C)(O)C1CC[C@]2(C)[C@@H]1[C@H](O[C@H]1O[C@@H](CO[C@@H]3O[C@@H](CO)[C@H](O)[C@H]3O)[C@H](O)[C@@H](O)[C@@H]1O)C[C@@H]1[C@@]3(C)CC[C@H](O[C@@H]4O[C@H](CO)[C@@H](O)[C@H](O)[C@H]4O[C@@H]4O[C@H](CO)[C@@H](O)[C@H](O)[C@H]4O)C[C@@H]3CC[C@]12C` (stereo partly drawn), the Activity is given as 33% with Mus musculus [6], 40% in the data set with Mus musculus [7], 89% in the data set filed under Mus musculus [8] and 87% in the data set filed under Mus musculus [9].
Take `C[C@@]1(CO)CC[C@]2(C(=O)O[C@@H]3O[C@H](CO[C@@H]4O[C@H](CO)[C@@H](O)[C@H](O)[C@H]4O)[C@@H](O)[C@H](O)[C@H]3O)CC[C@]3(C)C(=CC[C@@H]4[C@@]5(C)CC[C@H](O[C@@H]6O[C@H](CO)[C@@H](O)[C@H](O)[C@H]6O)[C@@](C)(C(=O)O)[C@@H]5CC[C@]43C)[C@@H]2C1`: in data set [10], the Activity is listed as 215 IU/L.
With `CC1(C)CC[C@]2(C(=O)O[C@@H]3O[C@H](CO)[C@@H](O)[C@H](O)[C@H]3O[C@@H]3OC[C@@H](O)[C@H](O)[C@H]3O)CC[C@]3(C)C(=CC[C@@H]4[C@@]5(C)C[C@@H](O)[C@@H](O)C(C)(C)[C@@H]5CC[C@]43C)[C@@H]2[C@@H]1O`, the Activity in data set [2] and in data set [3] was 68% throughout.
On to `C/C(=C\CC[C@@H](C)[C@H]1CC[C@@]2(C)C3=CC[C@H]4C(C)(C)[C@@H](O)CC[C@]4(C)C3=CC[C@]12C)CO` [GANODEROL B], for which the Activity is given as 18.97 U/L in the data set with HepG2 [4] and 26.42 U/L in the data set with HepG2 [5].
In the case of `C[C@@]1(CO)CC[C@]2(C(=O)O[C@@H]3O[C@H](CO[C@@H]4O[C@H](CO)[C@@H](O)[C@H](O)[C@H]4O)[C@@H](O)[C@H](O[C@@H]4O[C@H](CO)[C@@H](O)[C@H](O)[C@H]4O)[C@H]3O)CC[C@]3(C)C(=CC[C@@H]4[C@@]5(C)CC[C@H](O[C@@H]6O[C@H](CO)[C@@H](O)[C@H](O)[C@H]6O)[C@@](C)(C(=O)O)[C@@H]5CC[C@]43C)[C@@H]2C1`, the Activity in data set [10] came out at 253 IU/L.
On to `CC1(C)C[C@H]2C3=CC[C@@H]4[C@@]5(C)CCC(=O)C(C)(C)C5CC[C@@]4(C)[C@]3(C)CC[C@@]2(C(=O)O)CC1=O` (stereo partly drawn), for which the Activity in the data set with Mus musculus [11] is 43%.
Regarding `CC1(C)C[C@H]2C3=C[C@@H](O)[C@@H]4[C@@]5(C)CCC(=O)C(C)(C)C5CC[C@@]4(C)[C@]3(C)CC[C@@]2(C(=O)O)CC1=O` (stereo partly drawn), the Activity in the data set on Mus musculus [11] was found to be 24%.
As to `CC1(C)CC[C@]2(C(=O)O[C@@H]3O[C@H](CO)[C@@H](O)[C@H](O)[C@H]3O)CC[C@]3(C)C(=CC[C@@H]4[C@@]5(C)CC[C@H](O[C@@H]6O[C@H](CO)[C@@H](O)[C@H](O)[C@H]6O)C(C)(C(=O)O)[C@@H]5CC[C@]43C)[C@@H]2C1` (stereo partly drawn), the Activity in data set [10] is on record as 271 IU/L; in data set [12], 279 IU/L.
Take `CC1=C[C@]2(C=C([C@H]3CC[C@@]4(C)[C@@H]5CC[C@H]6C(C)(C)C(=O)C=C[C@]67C[C@]57CC[C@]34C)C(=O)N2)OC1=O`: the half-maximal effective concentration (EC50) in the data set with Hepatocyte [1] was 167 µM.
As to `CC(C)=CCC[C@](C)(O)C1CC[C@]2(C)[C@@H]1[C@H](O[C@H]1O[C@@H](CO[C@H]3O[C@@H](CO)[C@H](O)[C@@H](O)[C@@H]3O)[C@H](O)[C@@H](O)[C@@H]1O)C[C@@H]1[C@@]3(C)CC[C@H](O[C@@H]4O[C@H](CO)[C@@H](O)[C@H](O)[C@H]4O[C@@H]4O[C@H](CO)[C@@H](O)[C@H](O)[C@H]4O)C[C@@H]3CC[C@]12C` (stereo partly drawn), the Activity is on record as 33% in the data set with Mus musculus [6] and 40% in the data set on Mus musculus [7].
As for `CC1(C)CC[C@]2(C(=O)O[C@@H]3O[C@H](CO)[C@@H](O)[C@H](O)[C@H]3O)CC[C@]3(C)[C@H](C=C[C@@H]4[C@@]5(C)C[C@@H](O)[C@H](O)[C@@](C)(CO)[C@@H]5CC[C@]43C)[C@H]2[C@@H]1O`, the Activity in the data set with Hepatocyte [13], with Hepatocyte [14] and in the data set on Hepatocyte [15] was 8% in each case.
Consider `C[C@@]1(CO)CC[C@]2(C(=O)O[C@@H]3O[C@H](CO)[C@@H](O)[C@H](O)[C@H]3O)CC[C@]3(C)[C@H](C=C[C@@H]4[C@@]5(C)C[C@@H](O)[C@H](O)[C@@](C)(CO)[C@@H]5CC[C@]43C)[C@H]2C1`, for which the Activity with Hepatocyte [13] turned out to be 8%; in the data set on Hepatocyte [14], 8%; in the data set on Hepatocyte [16], 15.1%; in the data set with Hepatocyte [15] it was 8%.
Consider `CC1=C[C@@]2(C[C@H]([C@H]3CC[C@@]4(C)[C@@H]5CC[C@H]6C(C)(C)[C@@H](O)C=C[C@@]67C[C@@]57CC[C@]34C)[C@H](O)O2)OC1=O`, for which the EC50 in data set [17] is 37.9 µM.
Regarding `CC(=O)[C@H]1CC(=O)[C@@]2(C)C3=C(C(=O)C[C@]12C)[C@@]1(C)CC[C@H](O)C(C)(C)[C@@H]1C[C@@H]3O` [LUCIDONE A], the Activity in the data set on HepG2 [4] is on record as 17.46 U/L; with HepG2 [5], 21.18 U/L.
Turning to `CC1=C[C@@]2(C[C@H]([C@H]3CC[C@@]4(C)[C@@H]5CC[C@H]6C(C)(C)[C@@H](O)C=C[C@@]67C[C@@]57CC[C@]34C)[C@@H](O)O2)OC1=O`, the EC50 in data set [17] is 123 µM.
On to `CC1(C)CC[C@]2(C(=O)O)CC[C@]3(C)[C@H](C=C[C@@H]4[C@@]5(C)C[C@@H](O)[C@H](O)[C@@](C)(CO)[C@@H]5CC[C@]43C)[C@H]2[C@@H]1O`, for which the Activity in the data set with Hepatocyte [13], with Hepatocyte [14] and with Hepatocyte [15] was 8% in each case.
As to `CC(C)=CCC[C@](C)(O)C1CC[C@]2(C)[C@@H]1[C@H](O[C@H]1O[C@@H](CO[C@H]3OC[C@H](O)[C@@H](O)[C@@H]3O)[C@H](O)[C@@H](O)[C@@H]1O)C[C@@H]1[C@@]3(C)CC[C@H](O[C@@H]4O[C@H](CO)[C@@H](O)[C@H](O)[C@H]4O[C@@H]4O[C@H](CO)[C@@H](O)[C@H](O)[C@H]4O)C[C@@H]3CC[C@]12C` (stereo partly drawn), the Activity with Mus musculus [6] came out at 33%; in the data set on Mus musculus [7], 40%; in the data set filed under Mus musculus [8], 33%; in the data set filed under Mus musculus [9], 40%.
Consider `CC1=C[C@]2(C=C([C@H]3CC[C@@]4(C)[C@@H]5CC[C@H]6C(C)(C)C(=O)C=C[C@@]67C[C@@]57CC[C@]34C)C(=O)N2)OC1=O`, for which, in the data set on Hepatocyte [1], the concentration for a half-maximal effect (EC50) was found to be 126 µM.
For the compound `CC1(C)CC[C@]2(C(=O)O[C@@H]3O[C@H](CO)[C@@H](O)[C@H](O)[C@H]3O)CC[C@]3(C)C(=CC[C@@H]4[C@@]5(C)C[C@@H](O)[C@@H](O)[C@](C)(CO)[C@@H]5CC[C@]43C)[C@@H]2[C@@H]1O`, the Activity in data set [2] and in data set [3] was 61% in each case.
